Test system: serum lipids (TC, TG, HDL, TC/HDL ratio) in humans
Test: Multicenter double-blind random trial: effect of AP on serum total cholesterol and triglycerides in humans
Type: in vivo, human
Excerpt: A multicenter study, based on the Fujian Traditional Chinese Medicine Research Institute protocol, involved 476 patients between November 1994 and August 1996.
The total patient population was approximately 61% male, with the AP group being approximately 60% male and the control group approximately 64% male. Patients in each group were […] and averaged approximately 54-55 years of age. 164 patients had total cholesterol (TC) levels of 6.5-8.0 mmol/L, and 275 patients had triglycerides (TG) levels of 1.6-3.0 mmol/L. 131 patients had low high density lipoprotein (HDL) (<1.04 mmole/L for male, HDL<1.17 mmol/L for female). 201 patients had raised TC/HDL ratios (>5).
Patients with liver, renal and thyroid disease, as well as pregnant women and those who were on medications that could affect serum lipid readings, were excluded. Also excluded were patients who within the last year had had acute myocardial infarction, cerebral vascular diseases, major trauma and/or major surgery, as well as those with severe coronary or renal failure.
All medications were taken 2 times daily for 8 weeks. Although medications were administered by capsules, it should be understood that medications could be administered by tablets, liquids and/or pills as well.

SMILES: CC(C)OC(=O)C(C)(C)Oc1ccc(C(=O)c2ccc(Cl)cc2)cc1 [FF, Fenofibrate]
- Range of decreases (HDL level) (HDL, start vs end of 8 weeks): 0.18 ± 0.15 mmol/L
- End HDL (after 8 weeks, AP 3 x 200 mg capsules or FF 100 mg tablet, 2 times daily): 1.06 ± 0.27 mmol/L
- Start HDL (baseline, patients with low HDL): 0.88 ± 0.27 mmol/L
- End TC (total cholesterol after 8 weeks, AP 3 x 200 mg capsules or FF 100 mg tablet, 2 times daily): 6.46 ± 1.33 mmol/L
- Start TC (total cholesterol, baseline, patients with raised TC): 7.81 ± 1.38 mmol/L
- End TC (table: Effect of AP on triglyceride (TG) level) (triglyceride table, after 8 weeks, AP 3 x 200 mg capsules or FF 100 mg tablet, 2 times daily): 1.96 ± 1.10 mmol/L
- Start TC (table: Effect of AP on triglyceride (TG) level) (triglyceride table, baseline, patients with raised TG): 2.94 ± 1.38 mmol/L
